# According to patent US11136597B2, “Compositions for enhancing targeted gene editing and methods of use thereof” (Yale University, priority 2016, dated 2021):
# Tests used:
# [1] = test system: skin fibroblasts from β-globin/GFP mice, IVS2-654 (C→T) mutation; test: GFP/beta globin gene correction assay in mouse skin fibroblasts with DNA repair or other small molecule inhibitors; type: cell-based; conditions: inhibitor given 48 hours before tcPNA1 + donor DNA nanoparticles, flow cytometry 72 hours later
# Method: Skin fibroblasts were isolated from the β-globin/GFP mice (intron 2 of human β-globin inserted with in the GFP coding regions) and grown in culture in DMEM medium plus 10% FCS. The intron contains the IVS2-654 (C→T) mutation. The gene correction assay is illustrated in FIG. 5A.
# The fibroblasts were treated ex vivo with nanoparticles containing tcPNA1+ Donor DNA and 72 hours later flow cytometry analysis was performed to quantify the % gene correction based on the frequency of GFP positive cells. In some cases, DNA repair inhibitors or other small molecule inhibitors were given 48 hours before the nanoparticle treatment.
# [2] = test system: CD117+ cells from β-globin/GFP transgenic mice; test: Ex vivo gene editing in pre-sorted CD117+ cells with or without SCF or c-Kit pathway kinase inhibitors; type: cell-based, mouse; conditions: for gene editing frequency in pre-sorted CD117+ cells in presence of kinase inhibitor: γtcPNA4/donor DNA NPs plus inhibitor: dasatinib 200 nM, MEK162 1.0 μM, BKM120 3.0 μM
# Method: For CD117+ cell experiments, Iscove's Modified Dulbecco's Media (IMDM) media containing insulin (10 ng/ml), FCS (10%) and erythropoietin (1 U/ml) was used to culture CD117+ cells after isolation using magnetic separation. Where indicated, 3 μg/ml of SCF (Recombinant murine SCF, catalog #250-03, PeproTech, Rocky Hill, N.J.;) was added prior to nanoparticle treatment. 2 mg/ml of NPs were used to treat 50,000-100,000 CD117+ cells in triplicate for 48 hrs in the above media, followed by flow cytometry analyses as above. Inhibitors were used at concentrations of 200 nM (dasatinib), 1.0 μM (MEK162) and 3.0 μM (BKM120). Dasatanib was obtained from Cayman Chemical (Ann Arbor, Mich.; item #11498) and dissolved according to manufacturer's protocol. MEK162 and BKM120 were obtained from Dr. Harriet Kluger, Yale University.
# (§1) BD Bioscience kit catalog #558451 (BDImag™ Hematopoietic Progenitor Stem Cell Enrichment Set—DM) was used to isolate CD117 cells. Enrichment for CD117 was confirmed by flow cytometry. CD117+ enriched cells were labeled with CD117-APC (BD Pharmingen™ catalog #558451) antibody. Cells were co-labelled with control IgG antibody (BD Pharmingen™ catalog #555746) for gating purposes. To quantify GFP expression, after CD117 co-labelling, flow cytometry was performed using FACScaliburS by resuspending cells in PBS/1% FBS where green fluorescent cells are measured in the Fl1 channel and APC stained cells are in the Fl4 channel Antibodies for other markers were Ter119 (BD Pharmingen™ catalog #561033) and CD45 APC (BD Pharmingen™ catalog #561018).
# To explore the mechanism of the increased gene editing in CD117+ cells, the requirement of c-Kit-dependent signaling for elevated gene correction or whether CD117 simply serves as a marker for the increased susceptibility to gene editing was distinguished. To do this, γtcPNA4/donor DNA NP-mediated gene editing was assayed in pre-sorted CD117+ cells in the presence or absence of selected kinase inhibitors (FIG. 2D). Dasatinib, which inhibits the c-Kit kinase in addition to the BCR/Abl and Src kinases, reduced the gene editing from 7% to 2.0%.
# [3] = test system: homology-dependent repair (HDR); test: Luciferase reporter gene assay for homology-dependent repair (HDR) in CD117+ cells; type: cell-based, mouse; conditions: CD117+ cells
# Method: An inactivating I-Sce1 site was cloned 56 amino acids into the firefly luciferase open reading frame under the control of a CMV promoter. The reporter construct also contains a promoterless luciferase gene used as a template for homologous recombination. A double-strand break in the luciferase reporter is created by in vitro digestion with the I-Sce I restriction enzyme (NEB #R0694L). Plasmid DNA was digested with I-Sce 1 for 1 hour at 37° C. at a ratio of 10 units enzyme to 1 μg DNA and then the enzyme was inactivated at 65° C. for 20 minutes. The linearization of the plasmid was confirmed for each digestion via gel electrophoresis and the linear plasmid was purified using the Qiagen Qiaquick spin columns. After separation CD117+ and CD117-cells from bone marrow of β-globin/GFP transgenic mice, cells were transfected using the Lonza 2b Nucleofector Device. 5×10^5 cells were transfected with 1 μg of either the luciferase reporter vector or a positive control firefly luciferase expression vector, along with 50 ng of a renilla luciferase expression plasmid as a transfection efficiency control. All transfections were performed in triplicate. After transfection the cells were plated at a density of 5×10^5 cells/ml in 12-well plates. After 24 hours incubation post transfection, luciferase activity was measured using the Promega Dual Luciferase Assay Kit. In each sample firefly luciferase activity was normalized to the renilla luciferase transfection control. Reporter reactivation was calculated as a ratio of normalized firefly luciferase activity in the cells transfected with the reporter plasmid to the positive control.
# To test whether the above increases in DNA repair gene expression could be correlated with functional differences in DNA repair, a luciferase-based assay was used to quantify repair of DNA double-strand breaks (DSBs) by HDR. In this assay, repair of a DSB in a reporter plasmid via intramolecular homologous recombination creates (“reactivates”) a functional luciferase gene (FIG. 2H), and so the assay provides a measure of HDR capacity (FIG. 2J).
# [4] = test system: 120 bp double-stranded DNA fragments containing β-globin sequences; test: Gel mobility shift assay of SCD tcPNAs; type: binding, human; conditions: physiological conditions
# Excerpt: Each 120 bp dsDNA contained the binding site for the respective tcPNAs.
# [5] = test system: IVS2-654 (C→T) mutation within the β-globin/GFP fusion gene; test: Ex vivo gene correction (% GFP+ cells, flow cytometry) in bone marrow cells from β-globin/GFP transgenic mice; type: cell-based, mouse; conditions: total bone marrow cells, 2 mg/ml PLGA NPs with donor DNA, 48 hr
# Excerpt: To assay for gene editing in a robust and quantitative manner, a transgenic mouse model was utilized with a β-globin/GFP fusion transgene of human β-globin intron 2 carrying a thalassemia-associated IVS2-654 (C→T) mutation embedded within the GFP coding sequence, resulting in incorrect splicing of β-globin/GFP mRNA and lack of GFP expression (Sazani, et al., Nat. Biotechnol., 20:1228-1233 (2002)). PNA-mediated triplex-formation induces DNA repair and recombination of the genomic site with a 60-nucleotide sense donor DNA that is homologous to a portion of the β-globin intron 2 sequence except for providing a wild-type nucleotide at the IVS2-654 position. Via recombination, the splice-site mutation is corrected and expression of functional GFP occurs (FIG. 1A) (McNeer, et al., Gene Therapy, 20:658-669 (2013); Bahal, et al., Curr. Gene Ther., 14:331-342 (2014)). […]
# as §1, with “Enrichment for CD117 was confirmed by flow cytometry. CD117+ enriched cells were labeled with CD117-APC (BD Pharmingen™ catalog #558451) antibody. Cells were co-labelled with control IgG antibody (BD Pharmingen™ catalog #555746) for gating purposes.” left out
# [6] = test system: 120-bp DNA duplexes containing the respective target sequences (β-globin intron 2); test: DNA binding gel shift assay of tcPNAs; parameters: species or system human; conditions: 120-bp dsDNA, 37 C, 10 mM NaPi pH 7.4
# Method: For gel electrophoresis, synthetic 120 bp dsDNA targets were incubated with indicated oligomers at 37 C in low ionic strength buffer (10 mM NaPi, pH 7.4). The samples were separated on 10% non-denaturing polyacrylamide gels in 1×TBE buffer. The gels were run at […] for 1.5 hr. After electrophoresis, the gels were stained with 1×SYBR-Gold (catalog #S11494, Invitrogen) for 10 min, washed 2× with 1×TBE buffer, and then imaged using a gel documentation system (BioDoc-It System). The images were then inverted using Adobe Photoshop 6.0.
compound,measurement,setting,value
O=C(c1cc(Cc2n[nH]c(=O)c3ccccc23)ccc1F)N1CCN(C(=O)C2CC2)CC1 [AZD-2281],"effect on gene editing (% gene correction, GFP positive cells)",[1],boosts gene editing
"Nc1cc(C(F)(F)F)c(-c2cc(N3CCOCC3)nc(N3CCOCC3)n2)cn1 [BKM120, reference compound]",gene editing frequency in pre-sorted CD117+ cells in presence of kinase inhibitor,[2],4.1%
same,HDR repair activity (luciferase reactivation) in CD117+ cells,[3],diminished
Cc1nc(Nc2ncc(C(=O)Nc3c(C)cccc3Cl)s2)cc(N2CCN(CCO)CC2)n1 [Dasatinib],fold reduction of gene editing frequency,"[2]; CD117+ cells, inhibition of c-Kit kinase",~4 fold
same,gene editing frequency in pre-sorted CD117+ cells in presence of kinase inhibitor,[2],2.0%
"Cn1cnc2c(F)c(Nc3ccc(Br)cc3F)c(C(=O)NOCCO)cc21 [MEK162, reference compound]",gene editing frequency in pre-sorted CD117+ cells in presence of kinase inhibitor,[2],2.6%
same,HDR repair activity (luciferase reactivation) in CD117+ cells,[3],diminished
CC(C)c1cc(-c2n[nH]c(=O)n2-c2ccc3c(ccn3C)c2)c(O)cc1O [STA-9090/Ganetespib],"effect on gene editing (% gene correction, GFP positive cells)",[1],enhances gene editing
C[C@@]1(CO)[C@H](O)CC[C@@]2(C)[C@H]1CC[C@H]1C[C@@H]3C[C@@]12CC[C@]3(O)CO [aphidicolin],"effect on gene editing (% gene correction, GFP positive cells)",[1],boosts gene editing
"H-KKK-JJTJTTJ-OOO-CTTCTCCACAGGAGTCAG-KKK-NH2 (NNTNTTNCTTCTCCACAGGAGTCAG; listed as DNA, chemistry not fully specified) [SCD-tcPNA 1]",binding to 120 bp double-stranded DNA fragments (gel mobility shift),[4],binding
"H-KKK-JTTTJTTTJTJT-OOO-TCTCTTTCTTTCAGGGCA-KKK-NH2 (NTTTNTTTNTNTTCTCTTTCTTTCAGGGCA; miniPEG γ units, lysine caps, amide, chemistry not fully specified) [γtcPNA4]",genome modification frequency (% GFP+ cells),[5],1.62%
"H-KKK-TJTJTTJT-OOO-TCTTCTCTGTCTCCACAT-KKK-NH2 (TNTNTTNTTCTTCTCTGTCTCCACAT; listed as DNA, chemistry not fully specified) [SCD-tcPNA 3]",binding to 120 bp double-stranded DNA fragments (gel mobility shift),[4],binding
"H-KKK-TTJJTJT-OOO-TCTCCTTAAACCTGTCTT-KKK-NH2 (TTNNTNTTCTCCTTAAACCTGTCTT; listed as DNA, chemistry not fully specified) [SCD-tcPNA 2]",binding to 120 bp double-stranded DNA fragments (gel mobility shift),[4],binding
"H-KKK-TTJTTTJTTJTJ-OOO-CTCTTCTTTCTTGACAGG-KKK-NH2 (TTNTTTNTTNTNCTCTTCTTTCTTGACAGG; lysine caps, linker, C-terminal amide, chemistry not fully specified) [γtcPNA4-Scr, scrambled version of γtcPNA4 with the same base composition]",binding to target site in duplex DNA (gel shift),[6],No binding
same,genome modification frequency (% GFP+ cells),[5],no modification
